Here are results for nine compounds from paper PMC10916382, “Repurposing screen identifies novel candidates for broad-spectrum coronavirus antivirals and druggable host targets” (Antimicrobial Agents and Chemotherapy, 2024).

Structures can show the parent of a compound that is named as a salt. Where two headings read alike, the source gives them in different places.

For one data set, the system named is Huh-7.5/F-Luc cells. The following applies: for CC50 (µM): Huh-7.5 cells, dose series, maximum tested dose 5 µM; for % cell viability at max. dose [5 µM]: at max. dose 5 µM.
A further data set has as its system SARS-CoV-2. Conditions: Calu-3 cells.
A further data set concerns HCoV-229E. Kind of data set: microbe, parasite or virus in culture. It is filed as cell-based, Homo sapiens sapiens.
The mark [1] stands for this setting: HCoV 229E infection, dose series, max. dose 5 µM, read-out: IC50.

As for `CN(C)CCC(Sc1cccc2ccccc12)c1cccs1` (centres unmarked) [VUFB 18271], in the data set with Huh-7.5/F-Luc cells, the “CC50 (µM)” value is recorded as “greater than maximum tested dose” and the “% cell viability at max. dose [5 µM]” value was found to be 117.62%. Further, in the data set on SARS-CoV-2, the “Anti-SARS-CoV-2 screening on Calu-3 cells: viability [% of control]” value is recorded as 105.83 % of control and the “Anti-SARS-CoV-2 screening on Calu-3 cells: intracellular SARS-CoV-2 infection measured via immunofluorescence imaging [% of control]” value is reported as 114.60 % of control. Moreover, the 50% inhibitory concentration (IC50) (in general, the point on the concentration scale where inhibition reaches its midpoint) in the data set with HCoV-229E (setting [1]) amounted to 930 nM.

In the case of `COc1ccc2cc(S(=O)(=O)N[C@H](CC(=O)N[C@H](Cc3ccc(CN4[C@H](C)CCC[C@@H]4C)cc3)C(=O)N(C)C(C)C)c3ccc4c(c3)OCO4)ccc2c1` [SSR240612], in the data set on Huh-7.5/F-Luc cells, the “CC50 (µM)” value is on record as “greater than maximum tested dose” and the “% cell viability at max. dose [5 µM]” value is 127.22%. In the data set on SARS-CoV-2, the “Anti-SARS-CoV-2 screening on Calu-3 cells: viability [% of control]” value was 108.83 % of control and the “Anti-SARS-CoV-2 screening on Calu-3 cells: intracellular SARS-CoV-2 infection measured via immunofluorescence imaging [% of control]” value is recorded as 125.70 % of control. The IC50 in the data set on HCoV-229E (setting [1]) was 530 nM.

With `CC/C(=C(\c1ccc(O)cc1)c1ccc(OCCNC)cc1)c1ccccc1.Cl` [Endoxifen (hydrochloride)], in the data set on Huh-7.5/F-Luc cells, the “CC50 (µM)” value is recorded as “greater than maximum tested dose” and the “% cell viability at max. dose [5 µM]” value worked out at 148.79%. Further, in the data set with SARS-CoV-2, the “Anti-SARS-CoV-2 screening on Calu-3 cells: viability [% of control]” value is given as 90.44 % of control and the “Anti-SARS-CoV-2 screening on Calu-3 cells: intracellular SARS-CoV-2 infection measured via immunofluorescence imaging [% of control]” value was 114.51 % of control. Further, the IC50 in the data set on HCoV-229E (setting [1]) came to 560 nM.

In the case of `CC(C)(O)c1ccc2c(c1)/C(=C/CCN1CC[C@](O)(c3ccc(Cl)cc3)C(C)(C)C1)c1cccnc1CO2` [MLN-3897], in the data set on Huh-7.5/F-Luc cells, the “CC50 (µM)” value is “greater than maximum tested dose” and the “% cell viability at max. dose [5 µM]” value is recorded as 122.09%. In the data set on SARS-CoV-2, the “Anti-SARS-CoV-2 screening on Calu-3 cells: viability [% of control]” value is 106.59 % of control and the “Anti-SARS-CoV-2 screening on Calu-3 cells: intracellular SARS-CoV-2 infection measured via immunofluorescence imaging [% of control]” value is given as 101.50 % of control. In addition, in the data set on HCoV-229E (setting [1]), the IC50 worked out at 960 nM.

In the case of `Oc1ccc(CCN2CCC(Nc3nc4ccccc4n3Cc3ccc(F)cc3)CC2)cc1` [DESMETHYLASTEMIZOLE], in the data set with Huh-7.5/F-Luc cells, the “CC50 (µM)” value is listed as “greater than maximum tested dose” and the “% cell viability at max. dose [5 µM]” value is 160.37%. In the data set with SARS-CoV-2, the “Anti-SARS-CoV-2 screening on Calu-3 cells: viability [% of control]” value is reported as 121.52 % of control and the “Anti-SARS-CoV-2 screening on Calu-3 cells: intracellular SARS-CoV-2 infection measured via immunofluorescence imaging [% of control]” value is reported as 109.56 % of control. Moreover, the IC50 in the data set on HCoV-229E (read-out: IC50) came to 1070 nM.

On to `COc1cc2c(cc1N1C[C@@H](C)N[C@@H](C)C1)N(C(=O)c1ccc(-c3ccc(-c4noc(C)n4)cc3C)cc1)CC2` [SB-616234-A], for which, in the data set with Huh-7.5/F-Luc cells, the “CC50 (µM)” value is recorded as “greater than maximum tested dose” and the “% cell viability at max. dose [5 µM]” value was 143.19%. Further, in the data set on SARS-CoV-2, the “Anti-SARS-CoV-2 screening on Calu-3 cells: viability [% of control]” value is 119.80 % of control and the “Anti-SARS-CoV-2 screening on Calu-3 cells: intracellular SARS-CoV-2 infection measured via immunofluorescence imaging [% of control]” value is recorded as 117.99 % of control. Besides, the IC50 in the data set on HCoV-229E (setting [1]) was determined as 570 nM.

On to `COc1ccc2cc1Oc1ccc(cc1)C[C@H]1c3c(cc4c(c3Oc3cc5c(cc3OC)CCN(C)[C@@H]5C2)OCO4)CCN1C` [Cepharanthine], for which, in the data set with Huh-7.5/F-Luc cells, the “CC50 (µM)” value is on record as “greater than maximum tested dose”. In the data set with HCoV-229E (Human coronavirus 229E, Huh7.5), this compound displayed a 50% inhibitory concentration (IC50) of 470 nM.

Consider `OC(CNCC(O)C1CCc2cc(F)ccc2O1)C1CCc2cc(F)ccc2O1` (centres unmarked) [Nebivolol HCl], for which, in the data set with Huh-7.5/F-Luc cells, the “CC50 (µM)” value is given as “greater than maximum tested dose”. Also, the half-inhibitory concentration (IC50) with HCoV-229E (Human coronavirus 229E, Huh7.5) is 1000 nM.

Regarding `Nc1ncccc1-c1nc2ccc(-c3ccccc3)nc2n1-c1ccc(C2(N)CCC2)cc1` [ARQ-092 (Miransertib mesylate)], in the data set with Huh-7.5/F-Luc cells, the “CC50 (µM)” value is “greater than maximum tested dose” and the “% cell viability at max. dose [5 µM]” value was 98.72%. In the data set with SARS-CoV-2, the “Anti-SARS-CoV-2 screening on Calu-3 cells: viability [% of control]” value is recorded as 27.64 % of control and the “Anti-SARS-CoV-2 screening on Calu-3 cells: intracellular SARS-CoV-2 infection measured via immunofluorescence imaging [% of control]” value is reported as 126.86 % of control.
